From patent US9682955B2, “Quinazoline derivatives useful as CB-1 inverse agonists” (Janssen Pharmaceutica NV, priority 2014, dated 2017)
pEC50: −log10 of the molar value.

How the values were obtained:
[1] = biological target: Human CB1R (Cannabanoid receptor 1) (Homo sapiens (Human), UniProt P21554); assay: CB-1 in vitro cAMP assay (HTRF); format: cell-based; conditions: mean where tested more than once
Procedure, shortened: (§1)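 HEK-293 cells stably transfected with the human receptor, plated overnight at 4E5 cells/mL. Compounds given as 1/3 serial dilutions from 10 mM DMSO stocks. Stimulation in HBSS/5 mM HEPES/0.1% BSA with 0.5 mM IBMX and forskolin (1.5 μM in buffer); cAMP measured by competitive HTRF immunoassay (d2-cAMP, cryptate anti-cAMP) against a cAMP standard curve.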

[2] = biological target: Human CB2R (Cannabanoid receptor 2) (Homo sapiens (Human), UniProt P34972); assay: CB-2 in vitro cAMP assay (HTRF); format: cell-based; conditions: mean where tested more than once
Procedure, shortened: as §1

Chain of Human CB1R (Cannabanoid receptor 1) (P21554 whole entry): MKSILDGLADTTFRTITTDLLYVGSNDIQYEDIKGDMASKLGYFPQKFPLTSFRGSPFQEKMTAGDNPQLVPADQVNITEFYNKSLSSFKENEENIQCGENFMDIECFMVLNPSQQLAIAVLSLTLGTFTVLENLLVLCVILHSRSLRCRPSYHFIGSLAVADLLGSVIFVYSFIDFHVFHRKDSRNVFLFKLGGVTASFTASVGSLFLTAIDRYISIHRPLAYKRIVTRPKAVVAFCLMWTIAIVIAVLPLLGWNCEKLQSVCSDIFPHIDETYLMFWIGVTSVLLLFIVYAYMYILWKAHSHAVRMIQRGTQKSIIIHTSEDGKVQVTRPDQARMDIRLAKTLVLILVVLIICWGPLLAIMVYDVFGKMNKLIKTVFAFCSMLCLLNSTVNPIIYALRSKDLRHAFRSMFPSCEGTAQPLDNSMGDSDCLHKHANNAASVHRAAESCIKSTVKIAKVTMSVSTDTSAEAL
Chain of Human CB2R (Cannabanoid receptor 2) (P34972 whole entry): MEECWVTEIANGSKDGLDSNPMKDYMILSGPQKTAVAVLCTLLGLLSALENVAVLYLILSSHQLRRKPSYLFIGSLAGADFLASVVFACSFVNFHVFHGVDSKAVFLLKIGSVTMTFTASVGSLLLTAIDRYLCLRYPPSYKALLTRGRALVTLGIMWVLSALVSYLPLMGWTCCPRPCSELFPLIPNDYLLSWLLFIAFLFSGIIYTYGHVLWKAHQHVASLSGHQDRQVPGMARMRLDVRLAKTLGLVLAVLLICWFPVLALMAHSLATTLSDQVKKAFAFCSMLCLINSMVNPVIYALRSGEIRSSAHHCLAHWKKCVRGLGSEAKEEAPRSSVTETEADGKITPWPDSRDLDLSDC

SMILES | pEC50 [1] | pEC50 [2]
CS(=O)(=O)Nc1nc(NC2CCN(S(=O)(=O)C(F)(F)F)CC2)c2cc(C(c3ccc(Cl)cc3)c3ccc(Cl)cc3)ccc2n1 [Compound #100, N-(6-(bis(4-chlorophenyl)methyl)-4-((1-((trifluoromethyl)sulfonyl)piperidin-4-yl)amino)quinazolin-2-yl)methanesulfonamide] | 6.36 | < 5.00
O=C(NCCCOc1ccc(CCl)cc1)c1ccc(S(=O)(=O)N2CCC(Nc3ncnc4ccc(C(c5ccc(Cl)cc5)c5ccc(Cl)cc5)cc34)CC2)cc1 [Compound #30, 4-((4-((6-(bis(4-chlorophenyl)methyl)quinazolin-4-yl)amino)piperidin-1-yl)sulfonyl)-N-(3-(4-(chloromethyl)phenoxy)propyl)benzamide] | 6.35 | < 5.00
NC(=O)CCC(=O)N1CCC(Nc2ncnc3ccc(C(c4ccc(Cl)cc4)c4ccc(Cl)cc4)cc23)CC1 [Compound #86, 4-(4-((6-(bis(4-chlorophenyl)methyl)quinazolin-4-yl)amino)piperidin-1-yl)-4-oxobutanamide] | 5.61 | 5.05
O=S(=O)(c1ccc(Nc2ncnc3ccc(C(c4ccc(Cl)cc4)c4nccs4)cc23)cc1)C(F)(F)F (stereo not drawn) [Compound #142, 6-((4-chlorophenyl)(thiazol-2-yl)methyl)-N-(4-((trifluoromethyl)sulfonyl)phenyl)quinazolin-4-amine] | 6.24 | < 5.00
NC(=O)CC(=O)N1CCC(Nc2ncnc3ccc(C(c4ccc(Cl)cc4)c4ccc(Cl)cc4)cc23)CC1 [compound 87, 3-(4-(6-(bis(4-chlorophenyl)methyl)quinazolin-4-ylamino)piperidin-1-yl)-3-oxopropanamide] | 5.54 | < 5.00
O=C(O)c1ccc(CCN2CCC(Nc3ncnc4ccc(C(c5ccc(Cl)cc5)c5ccc(Cl)cc5)cc34)CC2)cc1 [Compound #10, 4-(2-(4-((6-(bis(4-chlorophenyl)methyl)quinazolin-4-yl)amino)piperidin-1-yl)ethyl)benzoic acid] | 6.05 | 6.00
Clc1ccc(C(c2ccc(Cl)cc2)c2ccc3ncnc(NC4CCN(CCc5ccccc5)CC4)c3c2)cc1 [Compound #11, 6-(bis(4-chlorophenyl)methyl)-N-(1-phenethylpiperidin-4-yl)quinazolin-4-amine] | 6.91 | < 5.00

Stronger by pEC50 [1], values ahead:

pEC50 [1] | pEC50 [2] | SMILES
7.80 | 5.03 | O=S(=O)(CCO)N1CCC(Nc2ncnc3ccc(C(c4ccc(Cl)cc4)c4ccc(Cl)cc4)cc23)CC1 [Compound #78, 2-((4-((6-(bis(4-chlorophenyl)methyl)quinazolin-4-yl)amino)piperidin-1-yl)sulfonyl)ethanol]
8.00 | 5.78 | O=C(COc1nc(NCc2cccc(C(F)(F)F)c2)c2cc(C(c3ccc(Cl)cc3)c3ccc(Cl)cc3)ccc2n1)NCCO [Compound #40, 2-((6-(bis(4-chlorophenyl)methyl)-4-((3-(trifluoromethyl)benzyl)amino)quinazolin-2-yl)oxy)-N-(2-hydroxyethyl)acetamide]
8.70 | 6.81 | Clc1ccc(C(c2ccc(Cl)cc2)c2ccc3ncnc(NC4CCN(c5ccccn5)CC4)c3c2)cc1 [Compound #130, 6-(bis(4-chlorophenyl)methyl)-N-(1-(pyridin-2-yl)piperidin-4-yl)quinazolin-4-amine]
7.12 | < 5.00 | Nc1nc(NC2CCN(S(=O)(=O)C(F)(F)F)CC2)c2cc(C(c3ccc(Cl)cc3)c3ccc(Cl)cc3)ccc2n1 [Compound #107, 6-(bis(4-chlorophenyl)methyl)-N4-(1-((trifluoromethyl)sulfonyl)piperidin-4-yl)quinazoline-2,4-diamine]
8.70 | 6.55 | Clc1ccc(C(c2ccc(Cl)cc2)c2ccc3ncnc(NC4CCN(c5ccccc5)CC4)c3c2)cc1 [Compound #137, 6-(bis(4-chlorophenyl)methyl)-N-(1-phenylpiperidin-4-yl)quinazolin-4-amine]
